Target: ΔmtDXPS (Mycobacterium tuberculosis, UniProt P9WNS3, D231G/I229G/K230G/L233G/S232G/S234G)
Assay type: binding

O=C(CCCOc1ccc(Cl)cc1Cl)NCCc1ccc(O)cc1F [Compound 39]
fold decrease in binding affinity for ΔmtDXPS: ~1.5 fold

Source: publication PMC8188608 (Chemical Science, 2021)
